{"source": "patent US20260258003A1", "about": "“SLACK-ACTIVATING COMPOUNDS AND THEIR MEDICAL USE” (Johann Wolfgang Goethe-Universität Frankfurt am Main, priority 2023, published 2026)", "key": {"human Slack": {"target": "T1, human Slack (Homo sapiens, UniProt Q5JUK3)", "T1 construct": "host or cells: HEK293", "T1 sequence (Q5JUK3 1-1230)": "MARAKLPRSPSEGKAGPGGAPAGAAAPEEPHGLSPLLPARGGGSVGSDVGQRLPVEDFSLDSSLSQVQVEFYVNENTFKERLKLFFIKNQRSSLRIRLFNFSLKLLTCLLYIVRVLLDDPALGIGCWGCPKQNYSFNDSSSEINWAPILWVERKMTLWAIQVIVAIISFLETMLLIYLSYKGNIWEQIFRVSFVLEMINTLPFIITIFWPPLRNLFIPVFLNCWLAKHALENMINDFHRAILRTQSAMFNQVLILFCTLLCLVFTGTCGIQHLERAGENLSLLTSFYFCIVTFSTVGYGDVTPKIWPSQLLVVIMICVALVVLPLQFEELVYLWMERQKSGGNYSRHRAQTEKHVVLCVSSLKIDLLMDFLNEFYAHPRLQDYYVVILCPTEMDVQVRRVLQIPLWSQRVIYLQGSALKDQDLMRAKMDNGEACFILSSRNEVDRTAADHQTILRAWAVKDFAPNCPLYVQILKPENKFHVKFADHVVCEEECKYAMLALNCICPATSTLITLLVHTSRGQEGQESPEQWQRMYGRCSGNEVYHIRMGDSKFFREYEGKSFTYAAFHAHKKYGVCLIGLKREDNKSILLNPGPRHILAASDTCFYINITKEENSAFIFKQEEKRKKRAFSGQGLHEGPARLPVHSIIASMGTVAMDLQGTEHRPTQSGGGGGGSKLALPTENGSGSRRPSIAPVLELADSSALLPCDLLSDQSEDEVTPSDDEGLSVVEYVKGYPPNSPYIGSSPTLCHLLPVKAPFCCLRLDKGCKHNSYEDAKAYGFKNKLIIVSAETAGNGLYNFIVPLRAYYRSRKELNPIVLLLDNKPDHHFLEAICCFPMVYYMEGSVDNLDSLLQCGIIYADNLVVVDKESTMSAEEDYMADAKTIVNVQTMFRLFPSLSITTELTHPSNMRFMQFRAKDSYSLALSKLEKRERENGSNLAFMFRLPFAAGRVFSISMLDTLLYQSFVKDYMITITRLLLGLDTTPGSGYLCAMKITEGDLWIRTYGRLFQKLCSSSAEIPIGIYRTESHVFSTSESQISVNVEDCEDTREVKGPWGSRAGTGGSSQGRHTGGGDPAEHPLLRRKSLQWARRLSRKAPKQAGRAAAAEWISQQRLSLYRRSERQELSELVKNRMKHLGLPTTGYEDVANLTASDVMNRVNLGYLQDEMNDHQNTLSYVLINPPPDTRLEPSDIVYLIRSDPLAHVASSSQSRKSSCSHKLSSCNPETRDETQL", "assay": "Whole-cell patch-clamp recordings in HEK-Slack cells", "format": "cell-based", "experimental": "Generally, in these experiments, HEK-Slack cells were plated onto poly-D-lysine-coated (100 μg/mL, Sigma Aldrich) coverslips 1 day before experiments and cultured in DMEM containing 10% FBS and 1% penicillin/streptomycin in 5% CO2 at 37° C. Whole-cell voltage clamp recordings were acquired using an EPC 9 amplifier combined with Patchmaster software (HEKA Electronics, Lambrecht/Pfalz, Germany). Currents were sampled at 20 kHz and filtered at 5 KHz. Data analysis was performed using the Fitmaster software (HEKA Electronics). Membrane potential was held at −70 mV and outward K^+ current (IK) was evoked by depolarizing steps (500 ms duration) ranging from −120 to +120 mV in increments of 20 mV. The pipette solution contained 140 mM KCl, 2 mM MgCl2, 5 mM EGTA, 10 mM HEPES, and was adjusted to pH 7.4 with KOH. The extracellular solution contained 140 mM NaCl, 5 mM KCl, 2 mM CaCl2), 2 mM MgCl2, 10 mM HEPES, and was adjusted to pH 7.4 with NaOH.\nAt a holding potential of −70 mV a series of 500 ms-long test pulses ranging from −120 to +120 mV in intervals of 20 mV were applied.\nFold increase values in patch-clamp experiments were determined by calculating […]."}, "[1]": {"target": "T2, norepinephrine transporter (NET) (Homo sapiens, UniProt P23975)", "T2 construct": "Eurofins SafetyScreen44", "T2 sequence (P23975 whole entry)": "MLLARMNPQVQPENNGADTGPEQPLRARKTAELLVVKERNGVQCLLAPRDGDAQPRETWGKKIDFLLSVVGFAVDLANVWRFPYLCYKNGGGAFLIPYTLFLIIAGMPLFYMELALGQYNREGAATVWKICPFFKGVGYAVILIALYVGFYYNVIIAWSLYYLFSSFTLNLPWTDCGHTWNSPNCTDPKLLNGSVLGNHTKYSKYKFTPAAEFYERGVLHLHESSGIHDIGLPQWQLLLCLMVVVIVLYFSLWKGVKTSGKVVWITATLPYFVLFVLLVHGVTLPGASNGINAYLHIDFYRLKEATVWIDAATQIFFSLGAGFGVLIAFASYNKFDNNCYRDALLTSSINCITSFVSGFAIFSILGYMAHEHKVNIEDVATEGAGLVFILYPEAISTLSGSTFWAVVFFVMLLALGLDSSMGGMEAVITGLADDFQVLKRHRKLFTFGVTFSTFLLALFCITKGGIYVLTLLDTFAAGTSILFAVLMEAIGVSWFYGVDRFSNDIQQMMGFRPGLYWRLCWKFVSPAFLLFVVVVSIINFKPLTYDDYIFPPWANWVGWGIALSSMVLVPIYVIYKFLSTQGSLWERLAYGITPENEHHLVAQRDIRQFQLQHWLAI", "assay": "SafetyScreen44 binding", "details": "substantial = higher than 50%"}, "[2]": {"tested_on": "CFA-induced paw hypersensitivity of mice", "assay": "CFA-induced inflammatory pain model", "format": "in vivo", "details": "10 mg/kg i.p. 24 h after CFA; 0.5 h and 1 h after administration", "experimental": "Animals: Experiments were performed in 8-16 week-old C57BL/6N mice (Charles River, Sulzfeld, Germany) of either sex. The animals were housed under a 12 h light/dark cycle with access to food and water ad libitum. All experiments adhered to the Animal Research: Reporting on In Vivo Experiments (ARRIVE) guidelines and were approved by and conducted in accordance with the regulations of the local Animal Welfare authorities (Regierungspräsidium Darmstadt, Germany; approval number V54-19c20/15-FR/2011). All behavioral studies were conducted during the light cycle of the day at room temperature (20-24° C.) by an observer blinded for the treatment of the animals and/or their genotype.\nBehavioral assessment: Mechanical sensitivity of a hindpaw was assessed using a dynamic plantar aesthesiometer (Ugo Basile, Comerio, VA, Italy). Animals were placed on a wire mesh grid and habituated to the apparatus chamber for 1 h. […] The paw withdrawal latency was recorded automatically and calculated as the average of 6-8 measurements. […] Mechanical sensitivity was again determined 24 h after the CFA injection. Immediately thereafter, drug or vehicle (10% cyclodextrine in 0.9% NaCl) were intraperitoneally administered and the mechanical sensitivity was determined over 3 h. […]"}}, "data": [{"molecule": "CN1CCCN(C2=Nc3ccccc3Oc3ccc(C(F)(F)F)cc32)CC1", "note": "[Compound 3, 11-(4-Methyl-1,4-diazepan-1-yl)-2-(trifluoromethyl)dibenzo[b,f][1,4]oxazepine]", "values": [{"measurement": "IK amplitude in comparison to vehicle", "setting": "human Slack; 50 μM", "result": "all except Compound 3"}]}, {"molecule": "O=c1nc(CN2CCN(C3=Nc4ccccc4Oc4ccc(Cl)cc43)CC2)[nH][nH]1", "note": "[Compound 10, 5-((4-(2-Chlorodibenzo[b,f][1,4]oxazepin-11-yl)piperazin-1-yl)methyl)-1,2-dihydro-3H-1,2,4-triazol-3-one]", "values": [{"measurement": "fold increase compared to baseline", "setting": "human Slack; 25 μM", "result": "7.74±1.525", "unit": "fold"}, {"measurement": "fold increase compared to baseline", "setting": "human Slack; 50 μM", "result": "12.54±1.395", "unit": "fold"}]}, {"molecule": "O=C(O)COCCN1CCN(C2=Nc3ccccc3Oc3ccc(Cl)cc32)CC1", "note": "[Compound 6, 2-(2-(4-(2-Chlorodibenzo[b,f][1,4]oxazepin-11-yl)piperazin-1-yl)ethoxy) acetic acid]", "values": [{"measurement": "binding inhibition, NET", "setting": "[1]; 10 μM", "result": "substantial binding"}, {"measurement": "paw withdrawal latencies compared to vehicle-treated animals", "setting": "[2]", "result": "significantly increased"}]}, {"molecule": "CN1CCN(C2=Nc3ccccc3Oc3ccc(Cl)cc32)CC1", "note": "[Loxapine, 2-chloro-11-(4-methylpiperazin-1-yl)dibenzo[b,f][1,4]oxazepine, reference compound]", "values": [{"measurement": "inhibition at 10 µM", "setting": "[1]", "result": "> 50", "unit": "%"}]}]}
